In patent US20180116993A1, “MODULATORS OF FARNESOID X RECEPTOR AND METHODS FOR THE USE THEREOF” (XIAMEN UNIVERSITY, priority 2015, published 2018):
Like-named read-outs stand apart in the source and are kept apart here. Marks after values point to notes of the source that are not given here.

Legend:
full-length FXR = biological target: T1, full-length FXR (Homo sapiens, UniProt Q96RI1); assay: Cell-based FXR transactivation, EcRE luciferase reporter in COS-7 cells; conditions: for fold induction at 5 µM / Cell-based FXR transactivation Fold changes by 5 μM compound: 5 μM compound; for fold induction at 5 µM / EC50: EcRE luciferase reporter; for Cell-based FXR transactivation Fold changes by 5 μM compound: positive: induction, minus: repression
T1 construct: The cells were co-transfected with plasmids encoding full-length FXR and the cognate luciferase reporter EcRE-Luc; expressed in transfected cells; host or cells: COS-7
T1 sequence (Q96RI1 1-486): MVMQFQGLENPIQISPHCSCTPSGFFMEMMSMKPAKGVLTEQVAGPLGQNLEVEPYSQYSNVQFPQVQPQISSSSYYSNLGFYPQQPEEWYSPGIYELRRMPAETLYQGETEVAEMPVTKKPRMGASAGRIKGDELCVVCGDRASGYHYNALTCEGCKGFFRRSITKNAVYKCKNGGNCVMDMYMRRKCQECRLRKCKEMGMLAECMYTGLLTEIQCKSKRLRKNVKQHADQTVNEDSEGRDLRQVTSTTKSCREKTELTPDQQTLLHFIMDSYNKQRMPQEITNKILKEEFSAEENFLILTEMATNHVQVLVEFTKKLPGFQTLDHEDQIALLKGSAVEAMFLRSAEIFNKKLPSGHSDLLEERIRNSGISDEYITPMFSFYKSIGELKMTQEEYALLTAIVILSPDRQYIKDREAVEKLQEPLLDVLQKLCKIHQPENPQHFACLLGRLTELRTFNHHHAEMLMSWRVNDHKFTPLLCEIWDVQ
Procedure, shortened: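 COS-7 cells were transiently cotransfected with full-length FXR, EcRE-Luc reporter and a renilla control. Ligands were added 5 h after transfection, and cells were harvested 24 h later. Firefly luciferase was normalized to renilla in a dual-luciferase read-out.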

[1] = system: human breast cancer MCF7 cells; assay: MTT cell viability assay, MCF-7; assay type: cell-based; conditions: 48 h, read-out: Cell viability as a percentage of the cells treated with DMSO, MCF-7
Procedure, shortened: (§1)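 DMEM + 10% FBS culture; compound 20 uM or 40 uM; MTT read-out; viability as % of DMSO control.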

[2] = system: human hepatoma HepG2 cells; assay: MTT cell viability assay, HepG2; assay type: cell-based; conditions: 48 h, read-out: Cell viability as a percentage of the cells treated with DMSO, HepG2
Procedure, shortened: as §1

[3] = system: human cervical carcinoma Hela cells; assay: MTT cell viability assay, Hela; assay type: cell-based; conditions: 48 h, read-out: Cell viability as a percentage of the cells treated with DMSO, Hela
Procedure, shortened: as §1

[4] = system: RA-resistant human colon cancer HCT116 cells; assay: MTT cell viability assay, HCT116; assay type: cell-based; conditions: 48 h, read-out: Cell viability as a percentage of the cells treated with DMSO, HCT116; for viability at 20 µM: HCT-116, 20 uM; for viability at 40 µM: HCT-116, 40 uM
Procedure, shortened: as §1

[5] = system: human colorectal adenocarcinoma HCT15 cells; assay: MTT cell viability assay, HCT15; assay type: cell-based; conditions: 48 h, read-out: Cell viability as a percentage of the cells treated with DMSO, HCT15; for viability at 20 µM: HCT-15, 20 uM; for viability at 40 µM: HCT-15, 40 uM
Procedure, shortened: as §1

[6] = biological target: T2, FXR ligand binding domain (LBD) (Homo sapiens, UniProt Q96RI1); assay: AlphaScreen assay: FXR LBD recruitment of coregulator peptide motifs (SRC2-3, SRC1-2); assay type: biochemical
T2 construct: made in house
T2 sequence (Q96RI1 262-486 limits assumed): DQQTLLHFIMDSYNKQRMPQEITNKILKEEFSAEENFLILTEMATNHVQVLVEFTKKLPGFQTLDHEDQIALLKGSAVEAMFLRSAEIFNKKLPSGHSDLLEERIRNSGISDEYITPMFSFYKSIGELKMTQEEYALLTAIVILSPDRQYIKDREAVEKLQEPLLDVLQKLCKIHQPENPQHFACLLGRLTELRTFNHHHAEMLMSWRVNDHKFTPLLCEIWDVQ

db/db mice = assay: Hepatic triglyceride, liver histology, serum ALT and ALP in high-fat diet fed db/db mice; assay type: in vivo, mouse; conditions: for Hepatic triglyceride (mM/g): vehicle 148 ± 14
Procedure, shortened: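 High-fat diet fed db/db mice aged 8-10 weeks dosed 10 mg/kg compound once daily for 10 days. Liver sections stained with H&E and 0.3% oil red O; hepatic triglyceride measured by tissue assay kit; serum ALP and ALT activities measured by kit.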

[7] = SRC1-2 peptide, Table 1, read-out: EC50 (μM) of FXR binding by AlphaScreen assay recruit SRC1-2
[8] = SRC2-3 peptide, Table 1, read-out: EC50 (μM) of FXR binding by AlphaScreen assay recruit SRC2-3
[9] = 10 mg/kg for 10 days, vehicle 377 ± 48, Table 15
[10] = SRC1-2 peptide, Table 2, read-out: EC50 (μM) of FXR binding by AlphaScreen assay recruit SRC1-2
[11] = SRC2-3 peptide, Table 2, read-out: EC50 (μM) of FXR binding by AlphaScreen assay recruit SRC2-3

| fold induction at 5 µM (full-length FXR; Table 1) | EC50 (full-length FXR; Table 1) | EC50 [6, 7] | EC50 [6, 8] | Cell-based FXR transactivation Fold changes by 5 μM compound (full-length FXR; Table 2) | EC50 (full-length FXR; Table 2) | EC50 [6, 10] | EC50 [6, 11] | SMILES | viability at 20 µM [1] | viability at 40 µM [1] | viability at 20 µM [2] | viability at 40 µM [2] | viability at 20 µM [3] | viability at 40 µM [3] | viability at 20 µM [4] | viability at 40 µM [4] | viability at 20 µM [5] | viability at 40 µM [5] | further results |
| --- | --- | --- | --- | --- | --- | --- | --- | --- | --- | --- | --- | --- | --- | --- | --- | --- | --- | --- | --- |
| 8 | < 1 µM | < 1 µM | < 1 µM | – | – | – | – | O=C(OC1CCCCCCC1)c1ccc(O)cc1 [XD-10, cyclooctyl 4-hydroxybenzoate] | 93 ± 7% | 28% | 90 ± 3% | 35 ± 1% | 90 ± 4% | 40 ± 3% | 92 ± 6% | 30 ± 4% | 60 ± 4% | 41 ± 4% | – |
| – | – | – | – | 5 | < 1 µM | < 1 µM | < 1 µM | Nc1ccc(C(=O)OC2CCCCCCC2)cc1 [XD-16, cyclooctyl 4-aminobenzoate] | – | – | – | – | – | – | – | – | – | – | Hepatic triglyceride (mM/g) (db/db mice; 10 mg/kg for 10 days): 81 ± 23 ^a mM/g; Serum ALT (U/L) (db/db mice; [9]): 104 ± 33 ^a U/L; Serum ALP (U/L) (db/db mice; 10 mg/kg once daily for 10 days, vehicle 129 ± 15): 88 ± 10^b U/L; Serum ALT (U/L) (db/db mice; 10 mg/kg once daily for 10 days, vehicle 377 ± 48, Table 17): 104 ± 33^a U/L |
| – | – | – | – | −30 | < 1 µM | < 0.5 µM | < 0.5 µM | Nc1ccc(C(=O)OC2CCC3CCCCC3C2)cc1 (stereo not drawn) [XD-23, decahydro-naphthalen-2-yl 4-aminobenzoate] | 100 ± 2% | 98 ± 2% | 100 ± 2% | 100 ± 2% | 100 ± 2% | 95 ± 3% | 75 ± 2% | 72 ± 2% | 81 ± 2% | 48 ± 2% | – |
| – | – | – | – | 2 | 1 to 10 µM | – | 1 to 10 µM | Cc1cc(C(=O)OC2CCC3CCCCC3C2)ccc1[N+](=O)[O-] (stereo not drawn) [XD-35, decahydro-naphthalen-2-yl 3-methyl-4-nitro-benzoate] | 100 ± 2% | 100 ± 2% | 100 ± 2% | 93 ± 2% | 94 ± 2% | 93 ± 2% | 95 ± 2% | 93 ± 2% | 100 ± 2% | 93 ± 2% | – |
| – | – | – | – | 3 | 1 to 10 µM | – | 1 to 10 µM | COc1cc(C(=O)OC2CCC3CCCCC3C2)ccc1[N+](=O)[O-] (stereo not drawn) [XD-36, decahydro-naphthalen-2-yl 3-methoxy-4-nitrobenzoate] | 100 ± 3% | 87% | 100 ± 3% | 81 ± 3% | 93 ± 3% | 85 ± 3% | 93 ± 3% | 91 ± 3% | 100 ± 3% | 92 ± 3% | – |

The remaining lines, values behind:

| SMILES | fold induction at 5 µM (full-length FXR; Table 1) | EC50 (full-length FXR; Table 1) | EC50 [6, 7] | EC50 [6, 8] | Cell-based FXR transactivation Fold changes by 5 μM compound (full-length FXR; Table 2) | EC50 (full-length FXR; Table 2) | EC50 [6, 10] | EC50 [6, 11] | viability at 20 µM [1] | viability at 40 µM [1] | viability at 20 µM [2] | viability at 40 µM [2] | viability at 20 µM [3] | viability at 40 µM [3] | viability at 20 µM [4] | viability at 40 µM [4] | viability at 20 µM [5] | viability at 40 µM [5] | further results |
| --- | --- | --- | --- | --- | --- | --- | --- | --- | --- | --- | --- | --- | --- | --- | --- | --- | --- | --- | --- |
| C/C1=C\CCC(C)(O)/C=C/C(C(C)C)C(OC(=O)c2ccc(O)cc2)C1 (stereo not drawn) [Feroline] | > 10 | < 1 µM | < 1 µM | < 1 µM | – | – | – | – | 92 ± 13% | 86 ± 12% | 84% | 65 ± 3% | 83% | 67 ± 3% | 100 ± 5% | 80 ± 2% | 100 ± 2% | 76 ± 6% | – |
| COc1cc(C(=O)OC2C/C(C)=C/CC/C(C)=C/[C@@H](O)[C@H]2C(C)C)ccc1O (stereo partly drawn) [Tschimganidine] | > 10 | < 1 µM | < 1 µM | < 1 µM | – | – | – | – | 100 ± 4% | 85% | 94% | 48 ± 4% | 96% | 30 ± 5% | 95 ± 4% | 40 ± 7% | 85 ± 9% | 60 ± 10% | – |
| COc1cc(C(=O)O[C@H]2C[C@H]3CC[C@]2(C)C3(C)C)ccc1O [Tschimganine] | > 10 | < 1 µM | < 1 µM | < 1 µM | – | – | – | – | 100 ± 3% | 99 ± 3% | 100 ± 1% | 97 ± 3% | 98 ± 2% | 97 ± 4% | 97 ± 1% | 90 ± 4% | 100 ± 1% | 80 ± 9% | – |
| CC1(C)[C@@H]2CC[C@@]1(C)[C@@H](OC(=O)c1ccc(O)cc1)C2 [Tschimgine] | > 10 | < 1 µM | < 1 µM | < 1 µM | – | – | – | – | 93% | 32% | 97% | 30 ± 3% | 94% | 31 ± 4% | 93 ± 4% | 25 ± 5% | 97 ± 6% | 31 ± 2% | – |
| CC1(C)C2CCC1(C)C(OC(=O)c1ccc(F)cc1)C2 (stereo not drawn) [XD-0, 1,7,7-trimethyl-bicyclo[2.2.1]-heptan-2-yl 4-fluorobenzoate] | – | – | – | – | 5 | 1 to 10 µM | 1 to 10 µM | 1 to 10 µM | 100 ± 2% | 85% | 81 ± 2% | 76 ± 7% | 90% | 71 ± 3% | 95 ± 4% | 62 ± 6% | 81 ± 4% | 56 ± 2% | Hepatic triglyceride (mM/g) (db/db mice; 10 mg/kg for 10 days): 91 ± 22 ^a mM/g; Serum ALT (U/L) (db/db mice; [9]): 106 ± 22 ^a U/L |
| Cc1cc(C(=O)OC2CC3CCC2(C)C3(C)C)ccc1N (stereo not drawn) [XD-4, 1,7,7-trimethyl-bicyclo[2.2.1]-heptan-2-yl 4-amino-3-methylbenzoate] | – | – | – | – | >10 | < 1 µM | < 1 µM | < 1 µM | 100 ± 9% | 23% | 90 ± 5% | 42 ± 1% | 95 ± 4% | 36 ± 2% | 81 ± 2% | 27 ± 1% | 79 ± 2% | 41 ± 3% | – |
| CC1(C)C2CCC1(C)C(OC(=O)c1ccc(N)cc1)C2 (stereo not drawn) [XD-5, 1,7,7-trimethyl-bicyclo[2.2.1]-heptan-2-yl 4-aminobenzoate] | – | – | – | – | >10 | < 1 µM | < 1 µM | < 1 µM | 100 ± 3% | 20% | 95 ± 1% | 40 ± 1% | 93 ± 4% | 46 ± 3% | 88 ± 2% | 30 ± 3% | 80 ± 4% | 30 ± 4% | – |
